Results taken from patent US9486536B2 (Immunomedics, Inc., priority 2013, dated 2016).

Legend:
[1] = tested on: MDA-MB-468, AG S, NCI-N87 and Capan-1 solid tumor cell lines; assay: cytotoxicity of P2PDox-mAb conjugates to target cells; format: cell-based, human; conditions: not shown
Description: The cytotoxicity of P2PDox-mAb conjugates to target cells was examined. hRS7-P2PDox and hMN-15-P2PDox were cytotoxic to MDA-MB-468, AG S, NCI-N87 and Capan-1 solid tumor cell lines (not shown). hMN-14-P2PDox was cytotoxic to Capan-1, BxPC-3 and AsPC-1 human pancreatic tumor lines and AGS, NCI-N87 and LS147T human gastric and colonic tumor lines (not shown). hLL2-P2PDOx was cytotoxic to Daudi, Raji, Ramos and JVM-3 hematopoietic tumor lines (not shown). IC50 values for the conjugates were in the nanomolar concentration range (not shown).

[2] = tested on: HIV-1IIIB/MuLV infected splenocytes; assay: HIV-1/MuLV infected cell challenge in mice; format: in vivo; conditions: doses of 100-200 μg
Procedure: P4/D10-P2PDox is tested in vitro for its efficacy in eliminating HIV-1-infected cells among non-infected cells and in a mouse model by removing HIV-1/MuLV (murine leukemia virus) infected syngeneic cells from the intraperitoneal cavity.
A human T-cell line, CEM-1B, with a genetically integrated MuLV genome is infected with HIV-1IIIB, which leads to the production of pseudoviruses with the HIV-1 genome and the MuLV envelope (Adang et al., PNAS USA 1999, 96:12749-753; Hinkula et al., Cells Tissues Organs 2004, 177:169-184). These virus supernatants are used to infect splenocytes from C57B1/6×DBA F1 K^b/d mice transgenic for HLA-A201. Isogenic mice are challenged with HIV-1IIIB/MuLV infected splenocytes i.p. and are immediately given conjugated antibodies or free antibodies i.p. Ten days after challenge, mice are sacrificed and peritoneal cells collected. Peritoneal cells are pelleted and added to 1×10^6 HIV susceptible Jurkat T-cells or human PBMC grown in 24-well plates. From these secondary cultures, supernatant is removed and fresh medium added every 3-4 days. The amount of infectious HIV recovered in the supernatant is measured for 3 weeks by p24 ELISA.
To test the efficacy of P4/D10-P2PDox in vivo, mice are given isogeneic HIV/MuLV-infected cells together with conjugates intraperitoneally.

[3] = tested on: Trop-2-positive human pancreatic adenocarcinoma cell line (BxPC-3); assay: ADCC with PBMCs, effector to target ratio 100:1; format: cell-based; conditions: 33.3 nM
Procedure: The ADCC activity of various hRS7-ADC conjugates was determined in comparison to hRS7 IgG (FIG. 17). PBMCs were purified from blood purchased from the Blood Center of New Jersey. A Trop-2-positive human pancreatic adenocarcinoma cell line (BxPC-3) was used as the target cell line with an effector to target ratio of 100:1. ADCC mediated by hRS7 IgG was compared to hRS7-Pro-2-PDox, hRS7-CL2A-SN-38, and the reduced and capped hRS7-NEM. All were used at 33.3 nM.

Substance: hRS7-P2PDox
- cytotoxicity [1]: cytotoxic
- protection by control conjugates [2]: None of the P2PDox-conjugated control antibodies (hLL1 or hRS7) provide any protection
- specific lysis (ADCC) [3]: not significantly different
